{"source": "patent US10183039B2", "about": "“Methods for the production of collagen IV” (Vanderbilt University, priority 2013, dated 2019)", "biological_target": "T1, peroxidasin (Mus musculus, UniProt Q3UQ28)", "T1 construct": "Cultured murine PFHR9 cells synthesize collagen IV networks that contain sulfilimine crosslinks due to the activity of PXDN; endogenous in cells; host or cells: PFHR-9 cells (isolated matrix from KI-treated culture)", "T1 sequence (Q3UQ28 24-1475)": "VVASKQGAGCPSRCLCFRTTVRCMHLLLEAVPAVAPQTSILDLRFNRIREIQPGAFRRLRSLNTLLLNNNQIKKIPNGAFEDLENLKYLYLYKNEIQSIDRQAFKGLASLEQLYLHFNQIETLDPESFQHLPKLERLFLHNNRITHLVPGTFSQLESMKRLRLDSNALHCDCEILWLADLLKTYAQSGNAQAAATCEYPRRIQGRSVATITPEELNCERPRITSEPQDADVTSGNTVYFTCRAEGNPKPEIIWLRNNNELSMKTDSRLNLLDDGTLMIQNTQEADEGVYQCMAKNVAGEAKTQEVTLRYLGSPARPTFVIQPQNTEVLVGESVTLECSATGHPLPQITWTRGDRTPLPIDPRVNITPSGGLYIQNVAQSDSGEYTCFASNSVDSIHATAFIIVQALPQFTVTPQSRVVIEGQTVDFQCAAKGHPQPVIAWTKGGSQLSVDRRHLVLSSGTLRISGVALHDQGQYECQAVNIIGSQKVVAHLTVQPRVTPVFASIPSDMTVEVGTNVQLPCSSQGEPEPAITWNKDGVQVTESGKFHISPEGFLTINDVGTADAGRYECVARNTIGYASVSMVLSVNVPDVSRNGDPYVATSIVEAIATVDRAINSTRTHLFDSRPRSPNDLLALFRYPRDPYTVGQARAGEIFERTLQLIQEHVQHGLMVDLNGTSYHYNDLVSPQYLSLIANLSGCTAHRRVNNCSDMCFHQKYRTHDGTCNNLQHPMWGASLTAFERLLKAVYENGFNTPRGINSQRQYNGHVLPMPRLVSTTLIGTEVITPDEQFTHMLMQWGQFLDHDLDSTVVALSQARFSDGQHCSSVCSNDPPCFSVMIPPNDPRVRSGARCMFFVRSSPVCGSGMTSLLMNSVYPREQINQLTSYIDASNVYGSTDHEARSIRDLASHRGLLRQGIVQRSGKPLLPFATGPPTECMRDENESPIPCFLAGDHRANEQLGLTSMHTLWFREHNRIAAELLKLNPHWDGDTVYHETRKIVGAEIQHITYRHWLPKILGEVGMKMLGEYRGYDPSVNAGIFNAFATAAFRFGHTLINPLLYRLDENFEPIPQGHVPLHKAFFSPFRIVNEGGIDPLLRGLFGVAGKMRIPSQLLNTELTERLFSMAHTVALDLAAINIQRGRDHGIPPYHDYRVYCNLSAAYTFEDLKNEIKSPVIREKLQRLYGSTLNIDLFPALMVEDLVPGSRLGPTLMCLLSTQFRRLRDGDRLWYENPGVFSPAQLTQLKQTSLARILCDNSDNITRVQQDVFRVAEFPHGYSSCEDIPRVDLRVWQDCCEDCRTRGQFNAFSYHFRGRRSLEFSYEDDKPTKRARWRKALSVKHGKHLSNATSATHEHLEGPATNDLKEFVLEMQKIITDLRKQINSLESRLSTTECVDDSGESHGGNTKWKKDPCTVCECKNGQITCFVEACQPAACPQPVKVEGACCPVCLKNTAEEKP", "assay": "In vitro basement membrane (uncrosslinked PFHR-9 matrix) reaction with halides and H2O2", "type": "biochemical", "protocol": "(FIG. 8A) Matrix pellets isolated from KI-treated PFHR9 cell culture were extensively washed into 10 mM phosphate buffer (pH 7.4) supplemented with 100 mM KF to maintain ionic strength. Potassium salts of Cl— or Br— were added in indicated amounts. 1 hr reactions at 37° C. were initiated by addition of H2O2 to 1 mM and stopped by freezing at −20° C. Coomassie blue-stained gels after collagenase digestion of the samples and SDS-PAGE (FIG. 8B) Schematic of Br-Free chloride salt purification apparatus and setup. […] Reagent KCl was commercially obtained and unaltered prior to analysis. 100 mM solutions were made with 18MΩ deionized water. (FIG. 8C) Coomassie blue stained gel of collagenase digested PFHR-9 matrix reaction assay. Reaction buffered contained 10 mM phosphate buffer (pH 7.4), 100 mM Br-Free or Commercially obtained reagent grade KCl, as well as 1 mM H2O2 and 200 μM PHG where appropriate. (FIG. 8D) SDS-PAGE and coomassie blue stain of hPXDN (27.25 nM) and NC1 domain (1.3 μM) reaction and subsequent densiometric quantitation of S═N bond formation stiochiometry in response to NaBr addition. hPXDN and PFHR-9 NC1 domain were prepared and purified as described (5), except with all buffers for all purification steps (dialysis, chromatography, gradient ultracentrifugation) made with Br-Free chloride salts. Reactions were run for 10 minutes at 37° C. with 10 μM H2O2 as the terminal oxidant. Dose-response curve run in the presence of 1× Br-Free PBS. Reactions were quenched with 0.2 mg/ml Catalase, 20 mM Methionine, and 1 mM PHG. EC50 value±95% C.I. from two independent experiments with each data point plotted and fit.\nUncrosslinked PFHR9 matrix was extensively washed into 10 mM phosphate buffer (pH 7.4) that was supplemented with 100 mM KF to maintain ionic strength. One hour reactions at 37° C. were initiated by addition of H2O2 to 1 mM and stopped by freezing at −20° C. […] Samples were digested with collagenase at 37° C. overnight and visualized by SDS-PAGE using 12% gels under non-reducing conditions with Coomassie staining.\nPFHR-9 cells treated with potassium iodide (1-10 mM) to eliminate NC1 hexamer crosslinks were used for basement membrane isolation. To test halide dependency, the inventors established halide-free conditions by washing extensively (at least five times) with 10 mM sodium phosphate pH 7.4. To try to extract or inactivate endogenous basement membrane peroxidase activity, the inventors extracted the matrix preparation twice with 2M guanidine-Cl, 50 mM Tris-Cl pH 7.5 and 10 mM EDTA-Na pH 8 followed by extensive washing with 1×PBS. Basement membrane was resuspended in the desired buffer with or without cofactors and inhibitors to examine in vitro NC1 crosslinking under various conditions. Basement membranes were collagenase solubilized to delineate collagen IV NC1 sulfilimine crosslink formation with SDS-PAGE and Coomassie blue staining membrane was isolated, washed extensively and resuspended in 1×PBS. Azide (0-10 mM) and 1 mM H2O2 were added and allowed to react for 1 h at 37° C. The matrix was pelleted, washed extensively with 1×PBS and solubilized with 1×PBS plus 2% (w/v) SDS. Solubilized proteins were reacted with 100 μM Tris[(1-benzyl-1H-1,2,3-triazol-4-yl)methyl]amine (Anaspec), 1 mM Tris(2-carboxyethyl)phosphine hydrochloride (ThermoFisher Pierce), 1 mM cupric sulfate and 100 μM biotin alkyne (PEG4 carboxamide-propargyl biotin; Life Technologies) for 1 h at 37° C. Click chemistry reactions were quenched with 1 mM 3′-azido-3′-deoxythymidine (Sigma). For avidin-HRP detection, samples were electrophoresed under reducing conditions, transferred to nitrocellulose membranes and probed with streptavidin-HRP according to manufacturer instructions (ThermoFisher Pierce). To isolate biotinylated proteins, the inventors precipitated click reaction products with two volumes of cold acetone to remove reactants, washed them with 70% (v/v) acetone and then resolubilized them in 1×PBS plus 2% SDS."}
{"smiles": "Br", "note": "[bromide]", "values": [{"measurement": "crosslink formation on bromide addition to Br-free chloride", "value": "restored"}, {"measurement": "halide concentration at which crosslinked dimeric subunits formed", "value": "~100", "unit": "mM"}, {"measurement": "halide concentration permitting enzymatic crosslinking within purified matrix", "value": 10, "unit": "µM"}, {"measurement": "S═N bond formation in isolated matrix", "setting": "pH 7.4", "value": "robustly catalyzed bond formation at 10 μM"}]}
